Where “and” joins values, the source holds several entries; their conditions need not be identical. Identical values can stand only once. Some results are limits rather than exact numbers.

The target of data set [1] is T1, CYP1B1 (Homo sapiens, UniProt Q16678).
T1 sequence (Q16678 1-543): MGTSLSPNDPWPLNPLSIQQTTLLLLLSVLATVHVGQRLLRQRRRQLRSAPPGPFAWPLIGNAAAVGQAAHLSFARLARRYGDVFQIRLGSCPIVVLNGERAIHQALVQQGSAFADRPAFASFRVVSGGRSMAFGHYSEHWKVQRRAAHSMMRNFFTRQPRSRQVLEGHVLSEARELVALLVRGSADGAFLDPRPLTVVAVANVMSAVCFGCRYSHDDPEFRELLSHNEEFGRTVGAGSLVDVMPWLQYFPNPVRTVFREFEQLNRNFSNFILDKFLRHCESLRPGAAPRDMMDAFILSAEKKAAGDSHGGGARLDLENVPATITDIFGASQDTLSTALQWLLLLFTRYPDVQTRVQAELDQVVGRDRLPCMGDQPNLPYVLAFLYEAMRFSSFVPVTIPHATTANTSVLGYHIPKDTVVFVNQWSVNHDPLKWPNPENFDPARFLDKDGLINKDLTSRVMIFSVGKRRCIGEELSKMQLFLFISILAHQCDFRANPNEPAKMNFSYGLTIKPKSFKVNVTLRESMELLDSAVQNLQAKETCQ
Put plainly: In-vitro CYP450 1B1 enzyme inhibition in Saccharosomes. It counts as biochemical. Set-up: purchased CYP Design Ltd; host or cells: yeast microsomes (Saccharosomes). As for the experimental part: Example 24. In-vitro CYP450 1B1 enzyme inhibition in Saccharosomes™: Regenerating system consists of: 5 μl Solution A (183 mg of NADP++183 mg of glucose-6-phosphate+654 μl of 1.0 M magnesium chloride solution+9.15 ml of sterile ultra-pure water)+1 μl Solution B (250 Units of glucose-6-phosphate dehydrogenase+6.25 ml of 5 mM sodium citrate; mixed in a tube and made up to 10 ml with sterile ultra-pure water)+39 μl 0.2 M Kpi (0.6 ml of 1.0M K2HPO4+9.4 ml of 1.0 M KH2PO4 were mixed and made up to 50 ml with sterile ultra-pure water)+5 μl potential inhibitory compound.
(§1) Example 25. IC50 determination for best compound against CYP1A1, CYP1B1 and other CYPs in Saccharosomes. Compounds were serially diluted to six different concentrations with 10% DMSO in a Sero-Well white microplate. The experiment was performed in a similar way as described above in examples 23 and 24.

The target in data set [2] is T1, CYP1B1. Put plainly: CYP1B1 inhibition in live human cells (HEK293). It is filed as cell-based.
The target in another data set is T2, CYP2B6 (Homo sapiens, UniProt P20813).
T2 construct: host or cells: yeast microsomes (Saccharosomes)
T2 sequence (P20813 1-491): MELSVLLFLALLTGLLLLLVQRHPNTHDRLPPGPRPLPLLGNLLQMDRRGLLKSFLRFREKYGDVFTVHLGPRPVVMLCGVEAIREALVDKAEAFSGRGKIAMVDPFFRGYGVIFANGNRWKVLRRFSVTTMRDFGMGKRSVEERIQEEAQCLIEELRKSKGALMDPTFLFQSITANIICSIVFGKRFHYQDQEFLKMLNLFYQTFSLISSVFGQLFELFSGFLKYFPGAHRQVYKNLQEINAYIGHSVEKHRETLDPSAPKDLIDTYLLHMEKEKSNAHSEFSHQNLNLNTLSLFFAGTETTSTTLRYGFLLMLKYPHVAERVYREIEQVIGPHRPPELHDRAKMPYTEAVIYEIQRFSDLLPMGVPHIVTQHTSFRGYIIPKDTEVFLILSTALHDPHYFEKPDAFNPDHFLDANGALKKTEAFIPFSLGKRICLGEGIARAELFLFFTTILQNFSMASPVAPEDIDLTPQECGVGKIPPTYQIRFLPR
The data set is described as follows: CYP2B6 inhibition in Saccharosomes. It counts as biochemical. The settings on record: Saccharosomes containing CYP2B6.

A further data set deals with T3, CYP1A1 (Homo sapiens, UniProt P04798).
T3 construct: host or cells: yeast microsomes (Saccharosomes)
T3 sequence (P04798 1-512): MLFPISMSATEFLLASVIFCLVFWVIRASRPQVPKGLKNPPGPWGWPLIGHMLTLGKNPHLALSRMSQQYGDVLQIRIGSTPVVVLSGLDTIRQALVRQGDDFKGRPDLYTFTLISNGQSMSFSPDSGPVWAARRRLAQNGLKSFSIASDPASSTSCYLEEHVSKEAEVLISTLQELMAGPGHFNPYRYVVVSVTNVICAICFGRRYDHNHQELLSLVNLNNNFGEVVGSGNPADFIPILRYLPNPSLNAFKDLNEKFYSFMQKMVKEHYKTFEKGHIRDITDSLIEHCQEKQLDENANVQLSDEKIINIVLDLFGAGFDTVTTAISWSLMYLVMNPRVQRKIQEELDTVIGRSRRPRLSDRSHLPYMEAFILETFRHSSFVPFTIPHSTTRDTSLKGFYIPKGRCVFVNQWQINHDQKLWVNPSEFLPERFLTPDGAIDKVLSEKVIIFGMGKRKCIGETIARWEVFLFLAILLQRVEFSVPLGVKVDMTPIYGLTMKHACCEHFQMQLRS
The data set is described as follows: In-vitro CYP450 1A1 enzyme inhibition in Saccharosomes. It is filed as biochemical. As for the experimental part:
Example 23. In-vitro CYP450 1A1 enzyme inhibition in Saccharosomes™: The screening method utilizes 384-well microplates to rapidly ascertain relative percentage inhibition of CYP1A1 by a library of compounds. Each reaction was performed in black, clear-bottomed 384-well microplates. A reaction volume of 50 μl comprised of 0.5 pmol of the cytochrome P450 CYP1A1 (Saccharosomes), 5 μM of ethoxyresorufin substrate (which contributes 0.05% DMSO to the well), 10 μM of potential inhibitor test article (which contributes 0.5% DMSO to the well), A P450 reductase NADPH regenerating system (1.3 mM NADP+, 3.3 mM glucose-6-0.02 units phosphate and glucose-6-Phosphate dehydrogenase), potassium phosphate buffer (final well concentration 100 mM, pH 7.4) and water. Very small quantities of magnesium chloride and sodium citrate are added to the NADPH regenerating system, in line with standard published protocols. The potential inhibitor (test article) was pre-incubated with CYP1A1 of at least 20 minutes at 30° C. After this period, the remainder of the reagents required in the assay was added to initiate the process. The reaction mixture was incubated for another 20 minutes at 30° C. The reaction was stopped by adding an 80% acetonitrile, 20% 0.5 M Tris solution. The reactions were monitored using the Biotek Synergy HT plate reader by measuring the endpoint reaction at Excitation 530/(25 bandwidth) & Emission 590/(20 bandwidth) using a gain/sensitivity setting of 60. The mean of the quadruplicates of the negative control (solvent inactivated CYP1A1) was deducted from the mean of potential inhibitor (test article) samples. The percentage was then derived relative to the mean of the wells without inhibitor.
as §1

A further data set deals with T4, CYP2C9 (Homo sapiens, UniProt P11712).
T4 construct: host or cells: yeast microsomes (Saccharosomes)
Put plainly: CYP2C9 inhibition in Saccharosomes. It counts as biochemical. The note with it: Saccharosomes containing CYP2C9.

T4 sequence (P11712 whole entry): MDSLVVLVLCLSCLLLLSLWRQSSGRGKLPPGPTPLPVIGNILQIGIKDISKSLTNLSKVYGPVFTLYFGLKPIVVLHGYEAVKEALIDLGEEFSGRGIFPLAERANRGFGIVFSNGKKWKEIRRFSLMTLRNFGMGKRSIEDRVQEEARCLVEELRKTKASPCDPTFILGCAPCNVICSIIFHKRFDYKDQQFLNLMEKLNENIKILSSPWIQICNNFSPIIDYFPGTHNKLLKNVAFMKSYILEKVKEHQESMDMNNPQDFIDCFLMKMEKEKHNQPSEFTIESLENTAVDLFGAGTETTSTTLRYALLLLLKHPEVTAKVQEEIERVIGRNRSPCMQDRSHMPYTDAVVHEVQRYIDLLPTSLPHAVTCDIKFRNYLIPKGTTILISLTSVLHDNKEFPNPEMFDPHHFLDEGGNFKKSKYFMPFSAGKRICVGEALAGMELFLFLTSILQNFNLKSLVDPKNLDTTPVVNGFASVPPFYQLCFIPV

What is called IC50 is the concentration that gives 50% inhibition. As a reminder, the inhibition is the change of the read-out against control, counted positive when it falls. Consider `COc1c(C(=O)/C=C/c2cccnc2)c(O)c(OC)c2occc12` [Compound 8, 3-(4,7-dimethoxy-6-hydroxybenzofuran-5-yl)-1-(pyridin-3-yl)-3-oxopropene], for which the figures for the IC50 against CYP1B1 [1], on CYP1B1 [2] and at CYP1A1 were 0.66 µM, 265 nM and 0.342 µM, respectively. For the same compound, the “% inhibition of CYP1B1 in Saccharosomes at 10 μM” value at CYP1B1 [1] (10 μM test compound, 7-ethoxyresorufin, 10 µM) is recorded as 80.3%. Further, the inhibition at 10 μM on CYP1B1 [1] (human, Saccharosomes (yeast-derived) with recombinant CYP1B1, probe 7-ethoxyresorufin (5 μl of 0.1 mM), % inhibition of CYP1B1 in Saccharosomes at 10 μM, 10 μM test compound, 7-ethoxyresorufin) was > 80%. The results for the inhibition at 20 µM at CYP2B6 and against CYP2C9 were 15% and 62%, respectively. Moreover, the “% inhibition of CYP1A1 in Saccharosomes at 10 μM” value at CYP1A1 (10 μM test compound, 5 μM ethoxyresorufin) was 97% and 97.2%. Besides, the inhibition at 20 min, 10 μM on CYP1A1 (human, Saccharosomes containing CYP1A1, pH 7.4, probe ethoxyresorufin (5 μM), % inhibition of CYP1A1 in Saccharosomes at 10 μM, 10 μM test compound, 5 μM ethoxyresorufin) was > 80%.

The record behind these values is US20210284618A1, “FURANOCHALCONES AS INHIBITORS OF CYP1A1, CYP1A2 AND CYP1B1 FOR CANCER CHEMOPREVENTION” (Council of Scientific & Industrial Research, priority 2016, published 2021).
